Assay results: ChEMBL document CHEMBL4825721, “Dual Glycolate Oxidase/Lactate Dehydrogenase A Inhibitors for Primary Hyperoxaluria” (ACS Med Chem Lett, 2021)
Active and inactive are the calls of the source. The rule behind the calls is not given here.

Tests used:
[1] = molecular target: T1, 2-Hydroxyacid oxidase 1 (Homo sapiens, UniProt Q9UJM8); assay: Inhibition of recombinant human GOX expressed in Escherichia coli C41 (DE3) using glycolate as substrate preincubated for 10 mins followed by substrate addition measured by Amplex red and horseradish peroxidase based fluorescence assay
T1 sequence (Q9UJM8 whole entry): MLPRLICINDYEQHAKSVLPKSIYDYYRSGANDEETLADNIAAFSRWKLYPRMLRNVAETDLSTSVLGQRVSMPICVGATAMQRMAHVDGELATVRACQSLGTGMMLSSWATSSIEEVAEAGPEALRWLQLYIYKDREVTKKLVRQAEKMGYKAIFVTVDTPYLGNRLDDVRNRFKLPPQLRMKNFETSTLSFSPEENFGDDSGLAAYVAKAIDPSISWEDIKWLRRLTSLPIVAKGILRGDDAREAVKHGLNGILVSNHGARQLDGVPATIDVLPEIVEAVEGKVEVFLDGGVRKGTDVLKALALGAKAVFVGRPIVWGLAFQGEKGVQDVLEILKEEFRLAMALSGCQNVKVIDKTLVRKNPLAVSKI

[2] = molecular target: T2, 2-Hydroxyacid oxidase 1 (Mus musculus, UniProt Q9WU19); assay: Inhibition of recombinant mouse GOX expressed in Escherichia coli C41 (DE3) using glycolate as substrate preincubated for 10 mins followed by substrate addition measured by Amplex red and horseradish peroxidase based fluorescence assay
T2 sequence (Q9WU19 whole entry): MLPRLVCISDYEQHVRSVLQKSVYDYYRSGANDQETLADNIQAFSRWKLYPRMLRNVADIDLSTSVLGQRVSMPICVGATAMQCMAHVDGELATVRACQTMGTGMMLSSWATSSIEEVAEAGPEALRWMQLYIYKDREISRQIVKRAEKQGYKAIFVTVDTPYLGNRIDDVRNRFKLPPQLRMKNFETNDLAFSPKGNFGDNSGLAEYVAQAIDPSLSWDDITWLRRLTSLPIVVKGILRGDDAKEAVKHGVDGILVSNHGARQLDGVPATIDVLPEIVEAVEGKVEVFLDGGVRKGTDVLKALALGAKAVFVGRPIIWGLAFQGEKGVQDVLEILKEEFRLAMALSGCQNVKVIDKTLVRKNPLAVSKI

[3] = Inhibition of GOX/LDHA in Ag xt knockdown PH1 mouse primary hepatocyte assessed as reduction of oxalate production in the presence of glycolate measured after 2 hrs by ICMS analysis; assay type: tissue-based
[4] = In vivo inhibition of GOX/LDHA in C57BL/6N mouse assessed as increase in plasma glycolate levels at 100 mg/kg, po measured after 2 hrs; assay type: functional
[5] = Drug distribution in C57BL/6N mouse liver at 100 mg/kg, po measured after 2 hrs by LC-MS/MS analysis; assay type: ADME, organism-based; conditions: in vivo
[6] = molecular target: L-lactate dehydrogenase A chain (Homo sapiens, UniProt P00338); assay: Inhibition of recombinant human LDHA expressed in BL21 gold (DE3) using sodium pyruvate as substrate preincubated for 10 mins followed by sodium pyruvate and […] addition
[7] = molecular target: T3, L-lactate dehydrogenase A chain (Mus musculus, UniProt P06151); assay: Inhibition of recombinant mouse LDHA expressed in BL21 gold (DE3) using sodium pyruvate as substrate preincubated for 10 mins followed by sodium pyruvate and […] addition
[8] = molecular target: T3, L-lactate dehydrogenase A chain; assay: Inhibition of LDHA in wild type CD1 mouse primary hepatocyte assessed as inhibition of lactate production using pyruvate as substrate measured after 30 mins by LC-MS analysis; assay type: tissue-based
[9] = tested on: Mus musculus; assay: In vivo inhibition of GOX/LDHA in C57BL/6N mouse assessed as increase in plasma glycolate levels at 100 mg/kg, po measured after 6 hrs; assay type: functional, organism-based
[10] = Drug distribution in C57BL/6N mouse liver at 100 mg/kg, po measured after 6 hrs by LC-MS/MS analysis; assay type: ADME, organism-based; conditions: in vivo
[11] = molecular target: T2, 2-Hydroxyacid oxidase 1; assay: Non competitive inhibition of mouse glycolate oxidase in hyperoxaluric-Agxt knockdown mouse primary hepatocyte assessed as reduction in oxalate production in the presence of glycolate measured upto 72 hrs by enzymatic assay; assay type: tissue-based
[12] = molecular target: T4, Hydroxyacid oxidase 1 (Sus scrofa, UniProt I3LVF1); assay: Inhibition of pig HAO1 in presence of NADH by spectrometry analysis
T4 sequence (I3LVF1 whole entry): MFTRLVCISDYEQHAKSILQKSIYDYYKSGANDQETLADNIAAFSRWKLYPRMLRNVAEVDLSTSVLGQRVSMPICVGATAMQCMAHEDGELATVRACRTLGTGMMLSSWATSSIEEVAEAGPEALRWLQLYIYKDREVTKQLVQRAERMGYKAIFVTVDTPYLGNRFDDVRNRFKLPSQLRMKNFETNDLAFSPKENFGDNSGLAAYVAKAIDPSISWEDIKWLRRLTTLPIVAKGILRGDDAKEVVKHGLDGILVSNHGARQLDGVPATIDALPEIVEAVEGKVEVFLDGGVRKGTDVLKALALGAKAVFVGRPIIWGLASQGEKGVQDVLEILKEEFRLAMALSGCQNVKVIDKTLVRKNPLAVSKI

IC50 [1] [nM] | IC50 [6] [nM] | IC50 [7] [nM] | IC50 [8] [nM] | Compound | IC50 [3] [nM] | also measured
6.7 |  |  |  | O=C(O)c1[nH]nnc1Sc1ccc(Cl)cc1 | 149 | IC50 [2]: 14.6 nM; fold change (FC) [4]: 4; Drug uptake [5]: Active
1.2 | 0.07 | 0.4 | 198 | NS(=O)(=O)c1ccc(Cc2c(-c3ccc(F)c(-c4ccc(Oc5nn[nH]c5C(=O)O)cc4)c3)nn(-c3nc(C(=O)O)cs3)c2CC2CC2)cc1F |  | 
0.9 | 0.1 | 0.2 | 143 | NS(=O)(=O)c1ccc(Cc2c(-c3ccc(F)c(-c4cccc(Oc5[nH]nnc5C(=O)O)c4)c3)nn(-c3nc(C(=O)O)cs3)c2CC2CC2)cc1F |  | inhibition [9]: inactive; Drug uptake [10]: Not Active
3.6 | 0.3 | 0.4 | 170 | NS(=O)(=O)c1ccc(Cc2c(-c3ccc(F)c(-c4ccc(-c5nn[nH]c5C(=O)O)cc4)c3)nn(-c3nc(C(=O)O)cs3)c2CC2CC2)cc1F |  | 
11 | 0.4 | 0.3 | 732 | NS(=O)(=O)c1ccc(Cc2c(-c3ccc(F)c(Oc4[nH]nnc4C(=O)O)c3)nn(-c3nc(C(=O)O)cs3)c2CC2CC2)cc1F |  | 
 |  | 0.1 |  | NS(=O)(=O)c1ccc(Cc2c(-c3cccc(-c4ccccc4)c3)nn(-c3nc(C(=O)O)cs3)c2CC2CC2)cc1 | 181 | 
 |  |  |  | O=C(O)c1nnsc1Sc1ccc(Cl)cc1 |  | Ki [11]: 4500 nM
 |  |  |  | O=C1NC(=O)C(c2ccc(-c3ccc(Br)cc3)cc2)=C1O |  | IC50 [12]: 87 nM
4.7 | 0.5 | 0.7 | 136 | NS(=O)(=O)c1ccc(Cc2c(-c3cccc(Sc4[nH]nnc4C(=O)O)c3)nn(-c3nc(C(=O)O)cs3)c2CC2CC2)cc1F | 88 | IC50 [2]: 7.7 nM; inhibition [9]: inactive; Drug uptake [10]: Not Active
1.1 | 0.3 | 0.2 | 230 | NS(=O)(=O)c1ccc(Cc2c(-c3ccc(F)c(-c4ccc(Sc5nn[nH]c5C(=O)O)cc4)c3)nn(-c3nc(C(=O)O)cs3)c2CC2CC2)cc1F |  | 
